Experimental data taken from patent US20170008888A1 (KYORIN PHARMACEUTICAL CO., LTD., priority 2014, published 2017).
Read-outs that look alike come from different tables or passages of the source.

Experiments:
[1] = target: T1, recombinant human ERK5 catalytic domain (Homo sapiens, UniProt Q13164); assay: Recombinant human ERK5 radiometric (HotSpot) assay; type: biochemical
T1 construct: Recombinant human ERK5 catalytic domain radiometric assays; purchased Reaction Biology, Corp (Malvern, Pa.), which ran the assay as a service
T1 sequence (Q13164 55-347 limits assumed): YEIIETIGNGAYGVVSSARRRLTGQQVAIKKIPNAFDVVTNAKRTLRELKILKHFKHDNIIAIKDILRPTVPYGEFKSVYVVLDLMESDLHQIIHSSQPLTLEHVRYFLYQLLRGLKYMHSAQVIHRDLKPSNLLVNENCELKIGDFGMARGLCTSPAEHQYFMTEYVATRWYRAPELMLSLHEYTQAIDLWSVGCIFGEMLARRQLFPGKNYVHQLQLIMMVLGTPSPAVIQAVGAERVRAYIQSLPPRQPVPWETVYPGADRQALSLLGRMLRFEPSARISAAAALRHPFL
Method: In this example, potency of the compounds in recombinant human ERK5 was assayed.
Recombinant human ERK5 catalytic domain radiometric assays were performed by Reaction Biology, Corp (Malvern, Pa.). The HotSpot radiometric assay is based on conventional filter-binding assays (Nature Biotechnology (2011) 29: 1039-1045). Compounds were tested at 20 μM down by ⅓ in a 10 point serial dilution series. Briefly, [γ-33P]-ATP was used as the tracer along with 10 μM cold ATP to label ERK5 in the presence of 20 μM myelin basic protein substrate.

human PBMCs = assay: Human PBMC TNF-α response to endotoxin (ELISA); type: cell-based; details: 0.1 μg/ml LPS 16 h, read-out: EC50 for the inhibition of the human PBMC TNF-α response to endotoxin, ave. ± S.D.
Method in brief: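 PBMCs at 2e6 cells/ml in RPMI 1640 with 10% charcoal-dextran-treated FBS were pre-treated 1 h at 37 °C with compound (4-point 1:5 dilution from 10 μM). Stimulation with 0.1 μg/ml E. coli 0111:B4 LPS for 16 h; TNF-α measured by ELISA (A450) in 25-fold diluted supernatant.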

[2] = target: T2, BRD4 bromodomain domain I [BRD4(1)] (Homo sapiens, UniProt O60885); assay: BRD4 bromodomain domain 1 inhibition assay (TR-FRET); type: binding; details: for inhibition at 10 µM: screening concentration 10 μM
T2 construct: BRD4 bromodomain domain I [BRD4(1)]; purchased Cayman Chemicals
Method in brief: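 0.5% DMSO, in triplicate, using Cayman BRD4(1) TR-FRET protocol with slight modification. 670/620 nm ratio normalized to 10 μM JQ1, with DMSO control set as 0% inhibition.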

[3] = 10 μM ATP, 20 μM myelin basic protein substrate, read-out: rhERK5 IC50

CCOc1cc(C(=O)N2CCC(N3CCOCC3)CC2)ccc1Nc1cc2c(cn1)N(C)C(=O)c1ccccc1N2C [Compound T12]
IC50 [1, 3]: 20 to 50 nM
EC50 (human PBMCs): 680 nM

CCOc1cc(C(=O)N2CCC[C@H](O)C2)ccc1Nc1cc2c(cn1)N(C)C(=O)c1scnc1N2C [Compound T13]
IC50 [1, 3]: 50 to 200 nM
EC50 (human PBMCs): 950 nM

CCOc1cc(C(=O)N2CCN(CCOC)CC2)ccc1Nc1cc2c(cn1)N(C)C(=O)c1ccccc1N2C [Compound T16]
IC50 [1, 3]: 20 to 50 nM
EC50 (human PBMCs): 920 nM

CCOc1cc(C(=O)N2CCN(CCC#N)CC2)ccc1Nc1cc2c(cn1)N(C)C(=O)c1ccccc1N2C [Compound T17]
IC50 [1, 3]: 20 to 50 nM
EC50 (human PBMCs): 900 nM

CCOc1cc(C(=O)N2CC[C@@H](N3CCOCC3)C2)ccc1Nc1cc2c(cn1)N(C)C(=O)c1ccccc1N2C [Compound T19]
IC50 [1, 3]: 50 to 200 nM
EC50 (human PBMCs): 690 nM

CCOc1cc(C(=O)N2CC[C@@H](C#N)C2)ccc1Nc1cc2c(cn1)N(C)C(=O)c1ccccc1N2C [Compound T21]
IC50 [1, 3]: < 20 nM
EC50 (human PBMCs): 1280 nM

CCOc1cc(C(=O)N2CCC[C@@H](C#N)C2)ccc1Nc1cc2c(cn1)N(C)C(=O)c1ccccc1N2C [Compound T23]
IC50 [1, 3]: > 200 nM
EC50 (human PBMCs): 2390 nM

CCOc1cc(C(=O)N2CCC[C@H](C#N)C2)ccc1Nc1cc2c(cn1)N(C)C(=O)c1ccccc1N2C [Compound T24]
IC50 [1, 3]: > 200 nM
EC50 (human PBMCs): 3270 nM

CCOc1cc(C(=O)N2CCN[C@@H](C)C2)ccc1Nc1cc2c(cn1)N(C)C(=O)c1ccccc1N2C [Compound T25]
IC50 [1, 3]: < 20 nM
EC50 (human PBMCs): 480 nM
inhibition at 10 µM [2]: > 85%

CCOc1cc(C(C)N2CCCC2)ccc1Nc1cc2c(cn1)N(C)C(=O)c1ccccc1N2C (centres unmarked) [Compound T26]
IC50 [1, 3]: < 20 nM
EC50 (human PBMCs): 410 nM
inhibition at 10 µM [2]: > 85%

CCOc1cc(C(C)N2CC[C@@H](O)C2)ccc1Nc1cc2c(cn1)N(C)C(=O)c1ccccc1N2C (some centres unmarked) [Compound T27]
IC50 [1, 3]: < 20 nM
EC50 (human PBMCs): 370 nM
inhibition at 10 µM [2]: > 85%

CCOc1cc(C(=O)N2CCC(=O)CC2)ccc1Nc1cc2c(cn1)N(C)C(=O)c1ccccc1N2C [Compound T28]
IC50 [1]: < 20 nM
EC50 (human PBMCs): 480 nM

CCOc1cc(C(=O)N2CCN[C@H](C)C2)ccc1Nc1cc2c(cn1)N(C)C(=O)c1ccccc1N2C [Compound T29]
IC50 [1, 3]: < 20 nM
EC50 (human PBMCs): 350 nM
inhibition at 10 µM [2]: > 85%

CCOc1cc(C(=O)N2CCN(C(=O)CN)CC2)ccc1Nc1cc2c(cn1)N(C)C(=O)c1ccccc1N2C [Compound T30]
IC50 [1, 3]: < 20 nM
EC50 (human PBMCs): 770 nM

CN1C(=O)c2ccccc2N(C)c2cc(Nc3ccc(C(=O)N4CCC[C@H](O)C4)cc3OCCF)ncc21 [Compound T32]
IC50 [1, 3]: 50 to 200 nM
EC50 (human PBMCs): 870 nM

CN1C(=O)c2ccccc2N(C)c2cc(Nc3ccc(C(=O)N4CCCNCC4)cc3OCCF)ncc21 [Compound T33]
IC50 [1, 3]: < 20 nM
EC50 (human PBMCs): 670 nM

CCOc1cc(C(=O)N2CCN(c3ccccn3)CC2)ccc1Nc1cc2c(cn1)N(C)C(=O)c1ccccc1N2C [Compound T35]
IC50 [1, 3]: 20 to 50 nM
EC50 (human PBMCs): 660 nM

CCOc1cc(C(=O)N2CCN(c3cccnc3)CC2)ccc1Nc1cc2c(cn1)N(C)C(=O)c1ccccc1N2C [Compound T36]
IC50 [1, 3]: < 20 nM
EC50 (human PBMCs): 110 nM

CCOc1cc(C(=O)N2CCC(N(C)CCO)CC2)ccc1Nc1cc2c(cn1)N(C)C(=O)c1ccccc1N2C [Compound T38]
IC50 [1, 3]: 20 to 50 nM
EC50 (human PBMCs): 320 nM

CCCOc1cc(C(=O)N2CCC[C@H](O)C2)ccc1Nc1cc2c(cn1)N(C)C(=O)c1ccccc1N2C [Compound T39]
IC50 [1, 3]: > 200 nM
EC50 (human PBMCs): 920 nM

CCCOc1cc(C(=O)N2CCCNCC2)ccc1Nc1cc2c(cn1)N(C)C(=O)c1ccccc1N2C [Compound T40]
IC50 [1, 3]: 20 to 50 nM
EC50 (human PBMCs): 490 nM

CCCOc1cc(C(=O)N2CCC(N3CCN(C)CC3)CC2)ccc1Nc1cc2c(cn1)N(C)C(=O)c1ccccc1N2C [Compound T41]
IC50 [1, 3]: 20 to 50 nM
EC50 (human PBMCs): 370 nM

CCOc1cc(C(=O)N2CCC[C@H](OP(=O)(O)O)C2)ccc1Nc1cc2c(cn1)N(C)C(=O)c1ccccc1N2C [Compound T43]
IC50 [1, 3]: 20 to 50 nM
EC50 (human PBMCs): > 10000 nM

CCOc1cc(C(=O)N2CCC[C@H](OC(=O)CN(C)C)C2)ccc1Nc1cc2c(cn1)N(C)C(=O)c1ccccc1N2C [Compound T44]
IC50 [1, 3]: 20 to 50 nM
EC50 (human PBMCs): 650 nM

CCOc1cc(C(=O)N2CCC(N3CCCNCC3)CC2)ccc1Nc1cc2c(cn1)N(C)C(=O)c1ccccc1N2C [Compound T45]
IC50 [1, 3]: < 20 nM
EC50 (human PBMCs): 1480 nM

CCOc1cc(C(=O)N2CCNC(C)CC2)ccc1Nc1cc2c(cn1)N(C)C(=O)c1ccccc1N2C (centres unmarked) [Compound T46]
IC50 [1, 3]: < 20 nM
EC50 (human PBMCs): 600 nM

CCOc1cc(C(=O)N2CCC(N3CCN[C@H](C)C3)CC2)ccc1Nc1cc2c(cn1)N(C)C(=O)c1ccccc1N2C [Compound T51]
IC50 [1, 3]: 20 to 50 nM
EC50 (human PBMCs): 740 nM

CCOc1cc(C(=O)N2CCC(N3CCN[C@@H](C)C3)CC2)ccc1Nc1cc2c(cn1)N(C)C(=O)c1ccccc1N2C [Compound T52]
IC50 [1, 3]: 20 to 50 nM
EC50 (human PBMCs): 1080 nM

CCOc1cc(C(=O)N2CCC[C@H](N3CCCC3)C2)ccc1Nc1cc2c(cn1)N(C)C(=O)c1ccccc1N2C [Compound T53]
IC50 [1, 3]: 50 to 200 nM
EC50 (human PBMCs): 890 nM

CCOc1cc(C(=O)N2CC[C@@H](N(C)CCO)C2)ccc1Nc1cc2c(cn1)N(C)C(=O)c1ccccc1N2C [Compound T55]
IC50 [1, 3]: 20 to 50 nM
EC50 (human PBMCs): 840 nM

CCOc1cc(C(=O)N2CCC[C@@H](N3CCCC3)C2)ccc1Nc1cc2c(cn1)N(C)C(=O)c1ccccc1N2C [Compound T57]
IC50 [1, 3]: 50 to 200 nM
EC50 (human PBMCs): 650 nM

CCOc1cc(C(=O)N2CC[C@@H](N3CCNCC3)C2)ccc1Nc1cc2c(cn1)N(C)C(=O)c1ccccc1N2C [Compound T58]
IC50 [1, 3]: 20 to 50 nM
EC50 (human PBMCs): 1040 nM

CCOc1cc(C(=O)N[C@H]2CC[C@H](O)CC2)ccc1Nc1cc2c(cn1)N(C)C(=O)c1ccccc1O2 [Compound T89]
IC50 [1, 3]: 50 to 200 nM
EC50 (human PBMCs): 1720 ± 1510 nM
IC50 [2]: > 5000 nM

CN1C(=O)c2cccc(F)c2Oc2cc(N[C@H]3CC[C@H](O)CC3)ncc21 [Compound T93]
IC50 [1, 3]: > 200 nM
EC50 (human PBMCs): 1720 ± 1340 nM
IC50 [2]: > 5000 nM

CN1C(=O)c2cccc(Cl)c2Oc2cc(N[C@H]3CC[C@H](O)CC3)ncc21 [Compound T94]
IC50 [1, 3]: > 200 nM
EC50 (human PBMCs): 1170 ± 1120 nM
IC50 [2]: > 5000 nM

Cc1cccc2c1Oc1cc(N[C@H]3CC[C@H](O)CC3)ncc1N(C)C2=O [Compound T96]
IC50 [1, 3]: > 200 nM
EC50 (human PBMCs): 1100 ± 860 nM
IC50 [2]: 2000 to 5000 nM

CCOc1cc(C(=O)N2CCN(C3CCN(C)CC3)CC2)ccc1Nc1cc2c(cn1)N(C)C(=O)c1ccccc1S2 [Compound T99]
IC50 [1, 3]: 50 to 200 nM
EC50 (human PBMCs): 3220 ± 2750 nM
IC50 [2]: > 5000 nM

CCOc1cc(C(=O)N2CCN(C3CCN(C)CC3)CC2)ccc1Nc1cc2c(cn1)N(C)C(=O)c1cccc(F)c1O2 [Compound T103]
IC50 [1, 3]: 50 to 200 nM
EC50 (human PBMCs): 1230 ± 1310 nM
IC50 [2]: > 5000 nM

CCOc1cc(C(=O)N2CCN(C3CCN(C)CC3)CC2)ccc1Nc1cc2c(cn1)N(C)C(=O)c1cccc(Cl)c1O2 [Compound T104]
IC50 [1, 3]: 50 to 200 nM
EC50 (human PBMCs): 510 ± 240 nM
IC50 [2]: 2000 to 5000 nM

CCOc1cc(C(=O)N2CCN(C3CCN(C)CC3)CC2)ccc1Nc1cc2c(cn1)N(C)C(=O)c1cccc(OC)c1O2 [Compound T105]
IC50 [1, 3]: 50 to 200 nM
EC50 (human PBMCs): 430 ± 280 nM
IC50 [2]: < 2000 nM

CCOc1cc(C(=O)N2CCN(C3CCN(C)CC3)CC2)ccc1Nc1cc2c(cn1)N(C)C(=O)c1cccc(C)c1O2 [Compound T106]
IC50 [1, 3]: 50 to 200 nM
EC50 (human PBMCs): 270 ± 170 nM
IC50 [2]: < 2000 nM

CCOc1cc(C(=O)N2CCN(C3CCN(C)CC3)CC2)ccc1Nc1cc2c(cn1)N(C)C(=O)c1c(F)ccc(F)c1O2 [Compound T107]
IC50 [1, 3]: 20 to 50 nM
EC50 (human PBMCs): 300 ± 250 nM
IC50 [2]: < 2000 nM

CCO[C@H]1CC[C@H](Nc2cc3c(cn2)N(C)C(=O)c2ccccc2N3C)CC1 [Compound T110]
IC50 [1, 3]: 50 to 200 nM
EC50 (human PBMCs): 2740 ± 1870 nM
IC50 [2]: > 5000 nM

CCOC1CCCC[C@H]1Nc1cc2c(cn1)N(C)C(=O)c1ccccc1N2C (some centres unmarked) [Compound T113]
IC50 [1, 3]: > 200 nM
EC50 (human PBMCs): 2950 ± 2170 nM
IC50 [2]: > 5000 nM

CN1C(=O)c2ccccc2N(C)c2cc(N[C@H]3CC[C@@H](O)CC3)ncc21 [Compound T114]
IC50 [1, 3]: > 200 nM
EC50 (human PBMCs): 3070 ± 3350 nM
IC50 [2]: > 5000 nM

CN1C(=O)c2ccccc2Sc2cc(N[C@H]3CC[C@H](O)CC3)ncc21 [Compound T116]
IC50 [1, 3]: > 200 nM
EC50 (human PBMCs): 1660 ± 1530 nM
IC50 [2]: > 5000 nM

CN1C(=O)c2ccccc2Oc2cc(N[C@H]3CC[C@H](O)CC3)ncc21 [Compound T117]
IC50 [1, 3]: > 200 nM
EC50 (human PBMCs): 2700 ± 2720 nM
IC50 [2]: > 5000 nM

CN1C(=O)c2cccc(F)c2N(C)c2cc(N[C@H]3CC[C@H](O)CC3)ncc21 [Compound T118]
IC50 [1, 3]: > 200 nM
EC50 (human PBMCs): 2430 ± 1780 nM
IC50 [2]: > 5000 nM

CN1C(=O)c2c(F)cccc2N(C)c2cc(N[C@H]3CC[C@H](O)CC3)ncc21 [Compound T119]
IC50 [1, 3]: 50 to 200 nM
EC50 (human PBMCs): 980 ± 930 nM
IC50 [2]: < 2000 nM
